Source: US20230079819A1, “COMPOUNDS AND USES THEREOF” (Foghorn Therapeutics Inc., priority 2019, published 2023)

Assays:
Type in all cases: cell-based
[1] = test system: uveal melanoma cell lines 92-1 or MP41; test: Growth inhibition of uveal melanoma cell lines, compound 67 compared with clinical PKC and MEK inhibitors, 3 days, Cell-titer glo; settings: vs LXS196 and Selumetinib
[2] = test system: uveal melanoma cell lines (92-1, MP41, MP38, MP46); test: Growth of uveal melanoma cell lines with compound 67, 3 days, Cell-titer glo; settings: 0 to 10 micromolar
[3] = test system: uveal melanoma cell lines 92-1 or MP41; test: Growth inhibition of uveal melanoma cell lines, Compound A compared with clinical PKC and MEK inhibitors, 3 days, Cell-titer glo; settings: vs LXS196 and Selumetinib
[4] = test system: several cancer cell lines; test: Inhibition of cell proliferation of several cancer cell lines
[5] = test system: uveal melanoma cell line MP41; test: Inhibition of cell proliferation of uveal melanoma cell line MP41
[6] = test system: uveal melanoma cell line 92-1; test: Inhibition of cell proliferation of uveal melanoma cell line 92-1
[7] = test system: parental and PKC-inhibitor refractory uveal melanoma cell lines; test: Inhibition of cell proliferation of parental and PKC-inhibitor refractory uveal melanoma cell lines
[8] = test system: MP41 uveal melanoma cells, parental and PKCi-resistant; test: 7-day growth inhibition assay in parental and PKC inhibitor-resistant MP41 cells; settings: 7-day assay
[9] = 92-1 or MP41, 3 days, 0 to 10 micromolar

Structure (SMILES) | growth inhibition of uveal melanoma cells compared with clinical PKC and MEK inhibitors (FIG. 6A, 6B) [1, 9] | onset of growth inhibition compared with clinical PKC and MEK inhibitors ([1]; 92-1 or MP41) | growth inhibition in uveal melanoma cell lines (FIG. 5) [2] | growth inhibition of uveal melanoma cells compared with clinical PKC and MEK inhibitors (FIG. 2A, 2B) [3, 9] | onset of inhibition compared with clinical PKC and MEK inhibitors ([3]; 92-1 or MP41) | inhibition of cell proliferation [4] | inhibition of cell proliferation [5] | inhibition of cell proliferation [6] | inhibition of cell proliferation [7] | growth tolerance of PKCi-resistant cells relative to parental MP41 cell line (FIG. 7A) [8]
CSCC[C@H](NC(=O)c1ccn(S(C)(=O)=O)c1)C(=O)Nc1nc(-c2cccc(-c3ccncc3)c2)cs1 [Compound 67, (S)-1-(methylsulfonyl)-N-(4-(methylthio)-1-oxo-1-((4-(3-(pyridin-4-yl)phenyl)thiazol-2-yl)amino)butan-2-yl)-1H-pyrrole-3-carboxamide] | more potent effects on growth inhibition | faster onset of growth inhibition | potent growth inhibition |  |  |  |  |  |  | 
CSCC[C@H](NC(=O)c1ccc(N)cc1)C(=O)Nc1nc(-c2cccc(-c3ccncc3)c2)cs1 [Compound A] |  |  |  | comparable growth inhibition | faster onset of inhibition | inhibition of cell proliferation | inhibition of cell proliferation | inhibition of cell proliferation |  | 
CC1(N)CCN(c2cccnc2NC(=O)c2nc(-c3ncccc3C(F)(F)F)cnc2N)CC1 [LXS196, reference compound] |  |  |  |  |  |  | inhibition of cell proliferation | inhibition of cell proliferation | inhibition of cell proliferation | could tolerate growth at higher concentrations
